Values after ≈ are worked out from the molar mass of the structure shown. Values joined by “and” are separate entries in the source; they are usually repeats but may differ in a detail not shown here. Equal entries are not always repeated. Where two headings read alike, the source gives them in different places.

The text below walks through data of patent US20240327423A1, “A SERIES OF PYRROLE DERIVATIVES AND THEIR PREPARATION METHOD AND THERAPEUTIC USE” (SHENZHEN SUNGENING BIO-MEDICAL CO., LTD, priority 2020, published 2024).

Series [1] in a line: Pharmacokinetic test in SD rats, single oral administration. Type of series: in vivo. Conditions: 10 mg/kg, single oral administration 10 mg/kg, test compound mixed with F901318, plasma; for Cmax: read-out: Cmax; for Tmax: read-out: Tmax; for half-life: read-out: T½ (converted). How it is done: Pharmacokinetic study is performed on SD rats receiving single oral administration of each test compound mixed with F901318 (10 mg/kg, 3 rats per group). Test compounds and F901318 are dissolved with […]+10% solutol+85% saline, vortexed for 1-2 mins and ultra-sonicated for 5-10 mins to form a colorless clear drug solution. The animals are fasted overnight before oral administration, and resumed feeding 4 hours after administration. After oral administration, pharmacokinetic samples are collected from orbital blood of SD rats at 0.083 h, 0.25 h, 0.5 h, 1 h, 2 h, 4 h, 6 h, 8 h, and 24 h, and three whole blood samples are collected at each time point in a volume of 0.2-0.3 mL. Blood samples are placed on ice immediately after collected, and the plasma is separated by centrifugation within 15 min (centrifugation conditions: 8000 rpm, 1 min, and at room temperature).
The collected plasma is stored at −20° C. prior to analysis. Transfer 20 μL of plasma sample into an 0.5 mL EP tube, add 200 μL of working internal standard solution (blank group is without internal standard, using the same volume of solvent instead), vortex and mix for 3 min centrifuge at 13500 rpm for 10 min, take 100 μL of supernatant and analyze with LC-MS/MS.

In series [2] the test system is Aspergillus fumigatus ATCCMYA-4690 (AF293). As to the kind of experiment: Survival rate experiment I of mouse bloodstream infection model with Aspergillus fumigatus. Type of series: in vivo. Conditions: immunosuppressed male CD-1 mouse; for survival time of mouses: 3 mg/kg orally twice daily; for day 7 survival rate: 3 mg/kg orally twice daily for 6 days, started 24 hours after infection. On the procedure:
Test Case 5: Survival Rate Experiment I of Mouse Bloodstream Infection Model with Aspergillus fumigatus • Experimental animals: male CD-1 mouse, 6-8 weeks old, 10 animals per group. • Induction of immunosuppression: the day of infection is defined as day 0, and mouses are injected intraperitoneally with corresponding doses of cyclophosphamide on day −4 (150 mg/kg), day −1 (100 mg/kg) and day 2 (100 mg/kg). • Microbial pathogen: Aspergillus fumigatus ATCCMYA-4690 (AF293). • Collection conditions of inoculum: culture on SDA culture plates, incubate at 25° C. for at least 7 days, collect with PBS+0.1% Tween 20, and count microscopically; • Inoculation level, route and volume: 3.60E+05 CFU/mouse, tail vein injection, injection volume of 100 μL/mouse; • Treatment: Treatment is started 24 hours after infection, and test compounds are dissolved in PEG400 (0.3 mg/mL), and used for administration orally to mouses at 3 mg/kg, twice daily for 6 days. The administrated mouses are observed for 8 hours.

A short description of series [3]: Liver microsomal stability test, mouse. The class given is in vitro ADME. Conditions: Mouse liver microsomes; for CLint scaled / half-life: 0.5 mg/mL protein, 37° C., NADPH. In general terms: Microsomes from liver hold many membrane-bound enzymes, among them those of drug oxidation.
Series [4] concerns Aspergillus flavus (ATCC 204304). As to the kind of experiment: Measurement of minimum inhibitory concentration (MIC), ATCC 204304. The class given is cell-based. Conditions: ATCC204304; Aspergillus flavus ATCC 204304, 35° C., 48 hours. On the procedure: New streaks are made with glycerol stock solution of the strains of Aspergillus fumigatus (ATCC MYA-4609/AF 293/CBS 101355) on Sabouraud's dextrose agar (SDA), incubate at 35° C. and a humidity of 40-70% for 72 hours. Other strains are processed as the same as AF293.
RPMI1640: one packet of RPMI1640 powder is dissolved in 1 L purified water and mixed well, add 0.165M MOPS, adjust the pH to 7.0, sterilize by filtration with 0.22 um membrane, and store at 4° C. for no more than 3 months.
Physiological saline: weigh 9 g of sodium chloride powder and dissolve in 1 L of purified water, and mixed well. Sterilize at 121° C. for 30 min, store at room temperature (RT) for no more than 1 week.
Dissolve the test compound and stock solution of one control compound with DMSO and obtain solutions at a concentration of 12.8 mg/mL
The maximum concentration of each compound is 0.8 mg/mL (e.g., 150 μL of dimethyl sulfoxide+10 uL of 12.8 mg/mL compound/control). Column 1 is filled with 40 μL of compound and columns 2 to 11 with 20 μL of dimethyl sulfoxide. Transfer 20 μL of compound from column 1 to column 2 to dilute the concentration. Repeat the above steps up to column 11 to give 2× serial dilutions.
2 μL of the above 2× serial dilutions are injected into each hole of the corresponding test plate using a multichannel pipette.
Drop 5 ml of saline on the Aspergillus fumigatus SDA plate. The spores were carefully wiped off from the surface of the plate with an L-shaped coating rod. Then the suspension is transferred into a sterile tube. After shaking, let the tube stand for 5 to 10 minutes. Count the number of spores in the upper suspension with a hemocytometer and check the purity. Adjust the inoculum concentration to 0.2-2.5×10^4 spores/mL.
Inject 198 μL of diluted inoculum into each holes of the corresponding test plate using a multichannel pipette.
Incubate at 35° C. for 48 hours.
To facilitate scoring of the presence or absence of growth on the wall, a magnifying glass is used. The tested 96-well microplates were photographed and the optical density at 530 nm is read with an enzyme marker (Tecan Spark).

The mark [5] stands for this setting: SD, rat, plasma, po, read-out: AUC.

Consider `Cc1cc(-c2ccccc2)c(C(=O)C(=O)Nc2ccc3c(c2)C[C@H]2CN(c4ncc(F)cn4)CCN32)n1C` [Example 33, (S)-2-(1,5-dimethyl-3-phenyl-1H-pyrrol-2-yl)-N-(2-(5-fluoropyrimidin-2-yl)-1,2,3,4,10,10a-hexahydropyrazino[1,2-a]indol-8-yl)-2-oxoacetamide], for which, in series [1] (setting [5]), the AUC (commonly concentration integrated over time) stood at 36100 ng·h/mL. For the same compound, in series [1] (SD, rat, plasma, po), the Cmax (commonly the maximum level reached in the sampled fluid or tissue) was 3490 ng/mL; the Tmax – broadly, the time at which the peak concentration occurs – came to 1 h; the half-life was 7.52 h. For the same compound, in series [2], the “survival time of mouses” value is “prolong the survival time” and the “day 7 survival rate” value was 40%. In series [3], the CLint scaled (in general, a measure of how fast metabolising enzymes remove a compound, apart from limits set by blood flow) amounted to 50.2 mL/min/kg; the half-life stood at 0.827 h; the “Remaining, (T = 60 min)” value is given as 44.8%. In series [4], the MIC (usually the lowest concentration that inhibits growth of the organism) is 8 ng/mL (≈ 15.7 nM).
Turning to `Cc1cc(-c2ccccc2)c(C(=O)C(=O)Nc2cc(F)c3c(c2)OC[C@H]2CN(c4ncc(F)cn4)CCN32)n1C` [Example 5], in series [1] (setting [5]), the AUC came out at 16000 ng·h/mL. In addition, in series [1] (SD, rat, plasma, po), the maximum concentration (Cmax) worked out at 1930 ng/mL, the Tmax was 1 h and the half-life is 4.29 h. Besides, the “day 7 survival rate” value in series [2] is 0%. Moreover, in series [3], the intrinsic clearance (CLint scaled) was found to be 115 mL/min/kg; the half-life worked out at 0.363 h; the “Remaining, (T = 60 min)” value is reported as 15.7%. The MIC in series [4] was determined as 4 ng/mL (≈ 7.35 nM).
`Cc1cc(-c2ccccc2)c(C(=O)C(=O)Nc2ccc(N3CCN(c4ncc(F)cn4)CC3)cc2)n1C` [Example F901318, reference compound]: the AUC in series [1] (setting [5]) worked out at 7540 ng·h/mL. Also, in series [1], the AUC is 9170.038 ng·h/mL and 7652.703 ng·h/mL and 9641.325 ng·h/mL. In series [2], the “survival time of mouses” value is on record as “prolong the survival time” and the “day 7 survival rate” value turned out to be 0%. Also, in series [3], the CLint scaled was found to be 98.9 mL/min/kg; the half-life stood at 0.42 h; the “Remaining, (T = 60 min)” value was determined as 18.7%. This compound also gave a minimum inhibitory concentration (MIC) in series [4] of 4 ng/mL (≈ 8.02 nM).
